Measured values: the supplement of paper PMC10307832

Key:
Assay in all cases: relative viability (nuclei count vs DMSO), 5 days (fraction); higher = more cells survive
CAL-12T = test system: CAL-12T
Method in brief: (§1)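 The day after seeding in 1536-well plates, lung cancer cell lines were treated by pin tool with a single drug, or with a fixed anchor-drug dose together with five library-drug doses (not always all listed) in √10 steps. After 5 days, a combined fix-and-stain solution (final 0.05% Triton X-100, 1% formaldehyde, 1 ug/ml Hoechst) was added. Nuclei counted on 4× images gave relative viability as treated counts over vehicle counts, reported as the median of duplicate plates.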

COR-L 105 = test system: COR-L 105
Method in brief: as §1

EKVX = test system: EKVX
Method in brief: as §1

EMC-BAC-2 = test system: EMC-BAC-2
Method in brief: as §1

H3255 = test system: H3255
Method in brief: as §1

LC-2-ad = test system: LC-2-ad
Method in brief: as §1

LK-2 = test system: LK-2
Method in brief: as §1

LXF-289 = test system: LXF-289
Method in brief: as §1

NCI-H1395 = test system: NCI-H1395
Method in brief: as §1

NCI-H1437 = test system: NCI-H1437
Method in brief: as §1

NCI-H1651 = test system: NCI-H1651
Method in brief: as §1

NCI-H1755 = test system: NCI-H1755
Method in brief: as §1

NCI-H1793 = test system: NCI-H1793
Method in brief: as §1

NCI-H1915 = test system: NCI-H1915
Method in brief: as §1

NCI-H1944 = test system: NCI-H1944
Method in brief: as §1

NCI-H2085 = test system: NCI-H2085
Method in brief: as §1

NCI-H2087 = test system: NCI-H2087
Method in brief: as §1

NCI-H2228 = test system: NCI-H2228
Method in brief: as §1

NCI-H2347 = test system: NCI-H2347
Method in brief: as §1

NCI-H661 = test system: NCI-H661
Method in brief: as §1

PC-3 [JPC-3] = test system: PC-3 [JPC-3]
Method in brief: as §1

SK-LU-1 = test system: SK-LU-1
Method in brief: as §1

SK-MES-1 = test system: SK-MES-1
Method in brief: as §1

Structure (SMILES): O=C(O)CCCCC(CCSCc1ccccc1)SCc1ccccc1 (stereo not drawn) [CPI-613] + CC(=O)Nc1cccc(-n2c(=O)n(C3CC3)c(=O)c3c(Nc4ccc(I)cc4F)n(C)c(=O)c(C)c32)c1 [Trametinib] (partner 0.02 µM)
- relative viability (CAL-12T; first compound 5 µM): 0.286
- relative viability (CAL-12T; first compound 15.81 µM): 0.309
- relative viability (CAL-12T; first compound 50 µM): 0.325
- relative viability (CAL-12T; first compound 158.11 µM): 0.0954
- relative viability (CAL-12T; first compound 500 µM): 0.038
- relative viability (COR-L 105; first compound 5 µM): 0.459
- relative viability (COR-L 105; first compound 15.81 µM): 0.437
- relative viability (COR-L 105; first compound 50 µM): 0.479
- relative viability (COR-L 105; first compound 158.11 µM): 0.355
- relative viability (COR-L 105; first compound 500 µM): 0.225
- relative viability (EKVX; first compound 5 µM): 0.287
- relative viability (EKVX; first compound 15.81 µM): 0.272
- relative viability (EKVX; first compound 50 µM): 0.343
- relative viability (EKVX; first compound 500 µM): 0.325
- relative viability (EMC-BAC-2; first compound 5 µM): 0.928
- relative viability (EMC-BAC-2; first compound 15.81 µM): 0.884
- relative viability (EMC-BAC-2; first compound 50 µM): 0.906
- relative viability (EMC-BAC-2; first compound 158.11 µM): 0.521
- relative viability (EMC-BAC-2; first compound 500 µM): 0.639
- relative viability (H3255; first compound 5 µM): 0.61
- relative viability (H3255; first compound 15.81 µM): 0.6
- relative viability (H3255; first compound 50 µM): 0.654
- relative viability (H3255; first compound 158.11 µM): 0.62
- relative viability (H3255; first compound 500 µM): 0.598
- relative viability (LC-2-ad; first compound 5 µM): 0.857
- relative viability (LC-2-ad; first compound 15.81 µM): 0.899
- relative viability (LC-2-ad; first compound 50 µM): 0.911
- relative viability (LC-2-ad; first compound 158.11 µM): 0.695
- relative viability (LC-2-ad; first compound 500 µM): 0.0212
- relative viability (LK-2; first compound 5 µM): 0.702
- relative viability (LK-2; first compound 15.81 µM): 0.786
- relative viability (LK-2; first compound 50 µM): 0.93
- relative viability (LK-2; first compound 158.11 µM): 0.856
- relative viability (LK-2; first compound 500 µM): 0.792
- relative viability (LXF-289; first compound 5 µM): 0.653
- relative viability (LXF-289; first compound 15.81 µM): 0.659
- relative viability (LXF-289; first compound 50 µM): 0.665
- relative viability (LXF-289; first compound 158.11 µM): 0.446
- relative viability (LXF-289; first compound 500 µM): 0.572
- relative viability (NCI-H1395; first compound 5 µM): 0.901
- relative viability (NCI-H1395; first compound 15.81 µM): 1.05
- relative viability (NCI-H1395; first compound 50 µM): 0.928
- relative viability (NCI-H1395; first compound 158.11 µM): 1.04
- relative viability (NCI-H1395; first compound 500 µM): 0.917
- relative viability (NCI-H1437; first compound 5 µM): 0.49
- relative viability (NCI-H1437; first compound 15.81 µM): 0.431
- relative viability (NCI-H1437; first compound 50 µM): 0.467
- relative viability (NCI-H1437; first compound 158.11 µM): 0.0999
- relative viability (NCI-H1437; first compound 500 µM): 0.0568
- relative viability (NCI-H1651; first compound 5 µM): 0.771
- relative viability (NCI-H1651; first compound 15.81 µM): 0.771
- relative viability (NCI-H1651; first compound 50 µM): 0.848
- relative viability (NCI-H1651; first compound 158.11 µM): 0.783
- relative viability (NCI-H1651; first compound 500 µM): 0.765
- relative viability (NCI-H1755; first compound 5 µM): 0.712
- relative viability (NCI-H1755; first compound 15.81 µM): 0.775
- relative viability (NCI-H1755; first compound 50 µM): 0.75
- relative viability (NCI-H1755; first compound 158.11 µM): 0.702
- relative viability (NCI-H1755; first compound 500 µM): 0.69
- relative viability (NCI-H1793; first compound 5 µM): 0.429
- relative viability (NCI-H1793; first compound 15.81 µM): 0.413
- relative viability (NCI-H1793; first compound 50 µM): 0.405
- relative viability (NCI-H1793; first compound 158.11 µM): 0.225
- relative viability (NCI-H1793; first compound 500 µM): 0.0839
- relative viability (NCI-H1915; first compound 5 µM): 0.292
- relative viability (NCI-H1915; first compound 15.81 µM): 0.284
- relative viability (NCI-H1915; first compound 50 µM): 0.299
- relative viability (NCI-H1915; first compound 158.11 µM): 0.216
- relative viability (NCI-H1915; first compound 500 µM): 0.148
- relative viability (NCI-H1944; first compound 5 µM): 0.427
- relative viability (NCI-H1944; first compound 15.81 µM): 0.398
- relative viability (NCI-H1944; first compound 50 µM): 0.412
- relative viability (NCI-H1944; first compound 158.11 µM): 0.259
- relative viability (NCI-H1944; first compound 500 µM): 0.28
- relative viability (NCI-H2085; first compound 5 µM): 0.664
- relative viability (NCI-H2085; first compound 15.81 µM): 0.555
- relative viability (NCI-H2085; first compound 50 µM): 0.6
- relative viability (NCI-H2085; first compound 158.11 µM): 0.216
- relative viability (NCI-H2085; first compound 500 µM): 0.12
- relative viability (NCI-H2087; first compound 5 µM): 0.207
- relative viability (NCI-H2087; first compound 15.81 µM): 0.16
- relative viability (NCI-H2087; first compound 50 µM): 0.159
- relative viability (NCI-H2087; first compound 158.11 µM): 0.0653
- relative viability (NCI-H2087; first compound 500 µM): 0.003
- relative viability (NCI-H2228; first compound 5 µM): 0.549
- relative viability (NCI-H2228; first compound 15.81 µM): 0.393
- relative viability (NCI-H2228; first compound 50 µM): 0.343
- relative viability (NCI-H2228; first compound 158.11 µM): 0.452
- relative viability (NCI-H2228; first compound 500 µM): 0.052
- relative viability (NCI-H2347; first compound 5 µM): 0.256
- relative viability (NCI-H2347; first compound 15.81 µM): 0.232
- relative viability (NCI-H2347; first compound 50 µM): 0.259
- relative viability (NCI-H2347; first compound 158.11 µM): 0.22
- relative viability (NCI-H2347; first compound 500 µM): 0.206
- relative viability (NCI-H661; first compound 5 µM): 0.528
- relative viability (NCI-H661; first compound 15.81 µM): 0.532
- relative viability (NCI-H661; first compound 50 µM): 0.541
- relative viability (NCI-H661; first compound 158.11 µM): 0.263
- relative viability (NCI-H661; first compound 500 µM): 0.133
- relative viability (PC-3 [JPC-3]; first compound 5 µM): 0.659
- relative viability (PC-3 [JPC-3]; first compound 50 µM): 0.712
- relative viability (PC-3 [JPC-3]; first compound 158.11 µM): 0.321
- relative viability (PC-3 [JPC-3]; first compound 500 µM): 0.433
- relative viability (SK-LU-1; first compound 5 µM): 0.452
- relative viability (SK-LU-1; first compound 15.81 µM): 0.477
- relative viability (SK-LU-1; first compound 50 µM): 0.365
- relative viability (SK-LU-1; first compound 158.11 µM): 0.366
- relative viability (SK-LU-1; first compound 500 µM): 0.129
- relative viability (SK-MES-1; first compound 5 µM): 0.534
- relative viability (SK-MES-1; first compound 15.81 µM): 0.49
- relative viability (SK-MES-1; first compound 50 µM): 0.523
- relative viability (SK-MES-1; first compound 158.11 µM): 0.201
- relative viability (SK-MES-1; first compound 500 µM): 0.132
